Results published in US5736529A, “Use of NAD-related compounds in the treatment of neural trauma to inhibit neurodegeneration” (priority 1996, dated 1998).
Where two headings read alike, the source gives them in different places.

Tests used:
[1] = system: DNA in brain regions of C57BL/6 mice; experiment: Second experiment, tBuOOH induced DNA fragmentation (FIG. 2, FIG. 3); type: in vivo, mouse (male C57BL/6)
Experimental: A second experiment was conducted to measure the degree of DNA fragmentation. […] Male C57BL/6 mice, of ages 2, 8 or 24 months old, were treated with tBuOOH ICV. Mice in the 20 minute group were treated with 110 mg/kg of tBuOOH and maintained for 20 minutes until brains were removed and analyzed for DNA fragmentation. This dose of tBuOOH induces cellular necrosis in a number of brain regions. Mice in the 48 hour group were given 22 mg/kg of tBuOOH and maintained for 48 hours. This dose of tBuOOH induces apoptosis and a small amount of necrosis in a number of brain regions.

[2] = system: DNA in brain of mice; type: in vivo, mouse (8 month old C47BL/6); conditions: 21.9 mg/kg t-BuOOH ICV; 48 hours; 8 month old mice
Experimental: A gel electrophoresis was performed to investigate whether the DNA fragmentation that is observed at the end of 48 hours is due to apoptosis or not (FIG. 7). 8 month old C47BL/6 mice were treated with ICV with 21.9 mg/kg t-BuOOH 48 hours prior to removal of the brains. Brains were added to lysing buffer and centrifuged. The supernatants were collected as in the DNA fragmentation assay. The samples were extracted with an equal volume of phenol/chloroform/isoamyl alcohol (25:24:1). The DNA in the aqueous phase was precipitated by adding an equal volume of 100% ethanol and maintained at -20° C. overnight. DNA was collected by centrifugation at 12,000 g for 25 minutes, air dried and resuspended in TBE buffer (90 mM Tris, 90 mM boric acid and 2 mM EDTA, pH 8.0). Horizontal electrophoresis was performed for 2 hours at 100 volts in a 0.75% agarose gel with TBE buffer. The gel was stained with ethidium bromide and photographed by UV transillumination.

[3] = system: glutathione peroxidase; conditions: cited from earlier work
[4] = system: DNA in brain regions of C57BL/6 mice; conditions: for DNA fragmentation, low dose: 21.9 mg/kg
Experimental: 24 month old C57BL/6 mice were divided into 3 groups of 3 mice each. One group was the control. A second group of mice was treated ICV with 109.7 mg/kg t-BuOOH and then sacrificed 20 minutes later. A third group of mice were treated ICV with 21.9 mg/kg t-BuOOH and then sacrificed 48 hours later. […] The brains were removed from the treated mice and were sectioned into the following six regions: cortex, striatum, hippocampus, thalamus, midbrain and cerebellum. DNA damage has been expressed as a ratio of the damaged DNA to the total DNA per gram of tissue.
DNA fragmentation was assessed in […] samples of tissue from a brain region. A volume of 0.2 ml of ice cold lysing buffer (10 mM Tris-HCl, pH 7.5, 1 mM EDTA, and 0.2% Triton X-100) was added to each section, which was then centrifuged at 12,000 g for 25 minutes to separate the intact from the fragmented DNA. The supernatant (containing the fragmented DNA) was transferred to a separate tube. 0.2 ml of the lysing buffer was added to the pellet with sonication for 10 seconds. The amount of DNA in the supernatant and pellet fractions was determined by a fluorimetric method, using the dye Hoechst 33258. DNA damage is presented as the ratio of DNA in the supernatant to the total DNA in the pellet and supernatant per gram of tissue^17.
8 month old mice were divided into 4 groups (n=5 each). Group 1 was the control. Mice in group 2 were treated with 109.7 mg/kg t-BuOOH and then sacrificed 20 minutes later. […] The same procedures were performed as with the 24 month old mice.

[5] = system: 24 month old mice; conditions: 24 month old mice; 21.9 mg/kg t-BuOOH only
[6] = system: NAD; conditions: 110 mg/kg ICV; 8 month old mice
Experimental: Male C57 B 1/6 mice, 8 months old, were treated ICV with tBuOOH (110 mg/kg) and maintained for 2, 5, 20 or 120 minutes. Anesthetized tBuOOH treated mice were immersed in liquid nitrogen to freeze their brains. The frozen brains were removed and dissected over dry ice. The brain regions were homogenized and analyzed by HPLC to determine NAD, NADH, NADP and NADPH levels as described previously. It is very important to stabilize the pyridine dinucleotides to prevent artifactual oxidation. NAD and NADP were stabilized by homogenization of brain regions in a cyanide containing solution. The cyanide reacts with the compounds forming cyano adducts that are stable. NADPH and NADH were stabilized by homogenizing brain regions in basic solution. NADPH and NADH are stable in base. Fortunately, the cyanide reaction proceeds optimally in base. Therefore, use of basic cyanide solutions during the homogenization produced optimal stabilization of NAD, NADP, NADH and NADPH. Following extraction with chloroform, centrifugation at 12,000 g for 5 minutes at 5° C., and filtration through 0.45μ positively charged nylon filters to remove DNA, the supernatants were injected onto a reverse phase HPLC column ("REXCHROME" ODS 5μ, Regis, Morton Grove, Ill.). Fluorescence detection (330 nm, excitation, 460 nm emission) was used to detect fluorescent NADH, NADPH and the cyano adducts of NAD and NADP.

[7] = system: apoptotic cells in brain; conditions: 21.9 mg/kg ICV; 48 hours; most abundant in thalamus and pons
Experimental: The purpose of the apoptosis staining was to identify individual cells that may have undergone apoptosis. Residues of digoxigenin nucleotide were added to the DNA by an enzyme terminal deoxynucleotidyl transferase (TdT) which catalyzes the addition of deoxyribonucleotide triphosphate to the 3'-OH end of single and double stranded DNA. Thus the targets for labeling are the numerous new 3'-OH DNA ends generated by DNA fragmentation, easily observable in morphologically identifiable nuclei and apoptotic bodies. The sections were then incubated with an antibody to digoxigenin residues. The antibody was coupled to peroxidase allowing visualization with 3,3'-diaminobenzidine. Other sections were stained with cresyl violet.
A dose of 21.9 mg/kg of tBuOOH was administered ICV to C57BL/6 mice. The mice were anesthetized 48 hours after the tBuOOH administration and perfused through the left cardiac ventricle with 0.175M sodium phosphate and 0.155M sodium chloride (pH 7.5, PBS), then with 4% formaldehyde and 0.2% glutaraldehyde in PBS for six minutes with each solution at room temperature. The brains were then removed from the cranium after 2 hours of fixation and sliced coronally into 50μ sections with a vibrating microtome.
In order to detect individual cells undergoing apoptosis, the In Situ Apoptosis Detection Kit, (Oncor, Gaithersburg, Md.) was used. […]

[8] = HPLC determination of tBuOOH in mice brains (pharmacokinetic profile); type: in vivo, mouse (male C57BL/6)
Experimental: Male C57BL/6 mice, 8 months old, were treated ICV with 110 mg/kg of tBuOOH. At various times, brains were removed, dissected and frozen on dry ice. Later the brains were homogenized in acetonitrile and centrifuged for 5 minutes at 12,000 g.

[9] = in vivo; cited from earlier work
[10] = 8 month old mice, 109.7 mg/kg t-BuOOH, 20 min
[11] = 8 month old mice, 109.7 mg/kg t-BuOOH, 20 min, * p<0.05 vs control
[12] = 24 month old mice, 21.9 mg/kg t-BuOOH ICV, 48 hours, * p<0.05 vs control
[13] = 24 month old mice, 109.7 mg/kg t-BuOOH ICV, 20 min, * p<0.05 vs control

Compound: CC(C)(C)OO [tBuOOH, t-butylhydroperoxide]
- DNA fragmentation in the cerebellum ([1]; 2, 8 and 24 month old mice, 48 hours): increased significantly
- DNA fragmentation in the cortex ([1]; 2 and 8 month old mice): no increase in DNA fragmentation in the cortex
- DNA fragmentation in the striatum, midbrain and hippocampus ([1]; 2 month old mice): increased DNA fragmentation
- tBuOOH induced necrosis in the thalamus at 20 minutes ([1]; 8 and 24 month old vs 2 month old mice): 8 and 24 month old mice are more sensitive than 2 month old mice
- DNA fragmentation in the cortex ([1]; 24 month old mice, also found in the hippocampus): robust increase in DNA fragmentation in the cortex
- apoptosis induced DNA fragmentation in the thalamus ([1]; 48 hours after tBuOOH): found only in 24 month old mice
- time of appearance of DNA fragments in the brain ([1]; after tBuOOH administration): ≤ 2 min
- DNA fragments on gel electrophoresis [2]: Oligosomal sized DNA fragments were observed along with a smear of fragmentation
- detoxification by glutathione peroxidase [3]: detoxified by glutathione peroxidase
- DNA fragmentation, low dose ([4]; 8 month old mice): significantly higher DNA fragmentation values were seen only in the cerebellum
- DNA fragmentation, low dose ([4]; 24 month old mice): significant increases in DNA fragmentation were observed in almost all brain regions (except the striatum)
- DNA fragmentation in the cortex or hippocampus ([4]; 109.7 mg/kg, 8 month old mice): no significant increase in DNA fragmentation
- DNA fragmentation in many brain regions ([4]; 109.7 mg/kg, 24 and 8 month old mice): Significant DNA fragmentation
- DNA fragmentation, cortex [4, 10]: 0.83 ± 0.14 per gram of tissue
- DNA fragmentation, hippo [4, 10]: 0.768 ± 0.16 per gram of tissue
- DNA fragmentation, cerebellum [4, 11]: 1.16 ± 0.15 per gram of tissue
- DNA fragmentation, midbrain [4, 11]: 2.37 ± 0.43 per gram of tissue
- DNA fragmentation, striatum [4, 11]: 2.33 ± 0.46 per gram of tissue
- DNA fragmentation, thala [4, 11]: 2.65 ± 0.88 per gram of tissue
- DNA fragmentation in the cerebellums (FIG. 5) ([4]; 8 month old mice, p<0.05): Statistically significantly different from control values and tBuOOH with nicotinamide
- DNA fragmentation, striatum ([4]; 24 month old mice, 21.9 mg/kg t-BuOOH ICV, 48 hours): 1.94 ± 0.31 per gram of tissue
- DNA fragmentation, cerebellum [4, 12]: 1.71 ± 0.45 per gram of tissue
- DNA fragmentation, cortex [4, 12]: 1.55 ± 0.19 per gram of tissue
- DNA fragmentation, hippo [4, 12]: 1.43 ± 0.23 per gram of tissue
- DNA fragmentation, midbrain [4, 12]: 2.04 ± 0.53 per gram of tissue
- DNA fragmentation, thala [4, 12]: 2.13 ± 0.31 per gram of tissue
- DNA fragmentation, cerebellum [4, 13]: 1.84 ± 0.45 per gram of tissue
- DNA fragmentation, cortex [4, 13]: 1.73 ± 0.23 per gram of tissue
- DNA fragmentation, hippo [4, 13]: 1.44 ± 0.20 per gram of tissue
- DNA fragmentation, midbrain [4, 13]: 2.77 ± 0.65 per gram of tissue
- DNA fragmentation, striatum [4, 13]: 2.46 ± 0.33 per gram of tissue
- DNA fragmentation, thala [4, 13]: 2.52 ± 0.43 per gram of tissue
- deaths [5]: Three out of six
- NAD levels after tBuOOH [6]: slowly and partially depleted
- apoptotic cells in the brain [7]: Apoptotic cells were found in many brain regions, but were most abundant in the thalamus and pons
- toxin concentration relative to the initial concentration within 5 minutes ([8]; 110 mg/kg ICV, 8 month old mice): less than 50%
- tBuOOH concentration curve in 2 month old mice ([8]; compared with 8 month old mice): virtually identical curve
- concentration at 10 min ([8]; mouse, brain, icv or intrathecal, 110 mg/kg ICV, 8 month old mice): ~1000 µM
- half-life ([8]; mouse, icv or intrathecal, 110 mg/kg ICV, depending on the brain region): 4 to 20 min
- clearance of tBuOOH from the brain ([8]; striatum of 8 month old mice, 110 mg/kg ICV): very rapid clearance of tBuOOH from the brain in the initial period, followed by a slower clearance
- brain permeation [9]: readily permeate throughout the brain
